Reference: publication PMC7495481, “Sequence specificity analysis of the SETD2 protein lysine methyltransferase and discovery of a SETD2 super-substrate” (Communications Biology, 2020)
“And” between values parts separate entries of the source, which are not always exact repeats. Equal values may be shown once.

Key:
SETD2 [1] = biological target: T1, SETD2 (Homo sapiens, UniProt Q9BYW2); test: Time courses of methylation of ssK36 and H3K36 compared (initial slopes); format: biochemical; conditions: 20 µM substrate, 6 µM enzyme; two experiments, average ± SEM
T1 construct: SETD2 catalytic SET domain (amino acids 1347–1711, UniProt No: Q9BYW2); made in house; host or cells: E. coli
T1 sequence (Q9BYW2 1347-1711): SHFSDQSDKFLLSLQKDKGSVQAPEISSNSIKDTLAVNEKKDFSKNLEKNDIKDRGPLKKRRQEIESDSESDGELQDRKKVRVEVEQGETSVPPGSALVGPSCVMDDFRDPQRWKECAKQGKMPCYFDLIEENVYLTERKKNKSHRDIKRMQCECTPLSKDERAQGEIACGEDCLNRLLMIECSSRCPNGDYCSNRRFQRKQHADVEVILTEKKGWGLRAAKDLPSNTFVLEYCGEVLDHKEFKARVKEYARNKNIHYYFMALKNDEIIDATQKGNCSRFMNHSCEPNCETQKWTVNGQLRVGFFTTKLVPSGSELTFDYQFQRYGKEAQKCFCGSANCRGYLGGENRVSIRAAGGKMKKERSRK
From the text: Fig. 2 Design of an optimized SETD2 peptide substrate and analysis of its methylation. a Variants of the H3K36 (29–43) peptide containing up to five mutations (Supplementary Table 1) were synthesized on a cellulose membrane and methylated by SETD2. The signal of the transferred radioactive methyl groups was detected by autoradiography. Spots A1 and B15 contain the H3K36 sequence, A2 and B16 the H3K36A peptide. Two films with different exposure times are shown to visualize weaker methylated spots as well. b Comparison of the methylation of purified super-substrate (ssK36) and the H3K36 peptides. […] Methylation reactions were conducted using 20 µM peptide and 6 µM enzyme. […]
The H3K36 (27–43) and the H3K36M (27–43) peptides were purchased from Intavis AG (Köln, Germany) and the ssK36 peptide (29–43) and the ssK36M peptide (29–43) were from Innovative Peptide Solutions (Berlin, Germany). […] The signals of the transferred radioactive labeled methyl groups were detected by autoradiography using a hyperfilm^TM high performance autoradiography film (GE Healthcare) at −80 °C in the dark. […]
Time courses of ssK36 methylation were analyzed by fitting to an exponential reaction progress curve (Eq. 1). Initial rates of single turnover reactions were determined using the first derivative of eq. […]

SETD2 [2] = biological target: T1, SETD2; test: Peptide SPOT array target lysine methylation of selected non-histone peptides (Fig. 3b); format: biochemical; conditions: Exp1–Exp3, 3–6 µM SETD2, 0.76 µM AdoMet, 60 min, pH 9, listed as DS
From the text: However, we could identify 166 possible targets, which contain partial matches to the substrate specificity profile. The possible methylation of these 166 putative substrates was investigated at the peptide level. For this, fifteen amino acid long peptides containing the sequence of the non-histone targets surrounding the predicted target lysine were synthesized on a membrane. The H3K36 (29–43) peptide (spots A1, I9), the super-substrate peptide (spots A3, I11) and the corresponding lysine to alanine mutation peptides (spot A2, I10, and A4, I12) were included as positive and negative controls (Fig. 3a, Supplementary Fig. 4 and Supplementary Table 2). The methylation reactions and the detection of the methylation signals were performed in duplicates as described above. We observed that all of the investigated peptides were more weakly methylated than the super-substrate peptide. […] In the next step, 20 of the peptides were selected for further investigation based on the methylation intensity and the known functions of the proteins to confirm the methylation at the predicted target site. The peptides were synthesized on another membrane, now including the target lysine to alanine mutation control peptides in each case. The methylation reactions and the detection of the signal were conducted as described above (Fig. 3b, Supplementary Fig. 5 and Supplementary Table 3).
Fig. 3 Identification of non-histone substrates of SETD2. a Candidate non-histone peptide substrates were identified in the human proteome based on the SETD2 super-substrate specificity profile. The peptides were synthesized on a peptide SPOT array (Supplementary Table 2) and methylated by SETD2. As controls, the H3K36, H3K36A, ssK36 and ssK36A peptides were included on spots A1–A4 and I9–I12. The autoradiography image is an example of the obtained results. […] The quantification of the data of two experiments is shown in Supplementary Fig. 4. b Analysis of target lysine methylation of selected non-histone substrate peptides. Peptide SPOT arrays were synthesized containing the non-histone peptide substrates identified in panel A in addition to the lysine to alanine mutations presented on the array as every second spot (Supplementary Table 3). As controls, the H3K36, H3K36A, ssK36, and ssK36A mutant peptides were included on spot A1–A4 and C5–C8. The autoradiography image is an example of the obtained results. The quantification of the data of three experiments is shown in Supplementary Fig. 5. Peptides selected for furhter analysis are highlighted by blue circles. c Protein methylation of FBN1 and confirmation of the target lysine methylation. Both wild type (WT) and mutant (K666R) FBN1 were purified and equal amounts were methylated by SETD2 (2 µM). […] The size of FBN1 is indicated by an asterisk.
Peptide arrays containing fifteen amino acid long peptides were synthesized using the SPOT synthesis method[48] with an Autospot peptide array synthesizer (Intavis AG, Köln, Germany). After synthesis, the obtained membranes were pre-incubated in methylation buffer (20 mM Tris/HCl pH 9, 0.01% Triton X-100, 10 mM DTT, 1.5 mM MgCl2) for 5 min on a shaker. Thereafter, the membranes were incubated in methylation buffer supplemented with 0.76 µM radioactively labeled AdoMet (PerkinElmer) and 3–6 µM SETD2 enzyme for 60 min on a shaker. After methylation, the membranes were washed 5 times for 5 min in wash buffer (100 mM NH4HCO3, 1% SDS) and incubated in amplify NAMP100V (GE Healthcare) for 5 min. This was followed by the exposure of the membranes to a hyperfilm^TM high performance autoradiography (GE Healthcare) film at −80 °C in the dark. The films were developed with an Optimax Typ TR machine after different exposue times. For quantification the signal intensities were measured with the Phoretix^TM software and analyzed with Microsoft Excel.

fold higher initial slope for ssK36 methylation vs H3K36 (SETD2 [1]): 290 ± 70 fold
Relative methylation signal, Average (SETD2 [2]): 0.95 and 0.9901
Sequence: APRFGGVKRPNRYRP [ssK36, super-substrate peptide with four amino acid exchanges (A31R, T32F, K37R, H39N)]
